One may read the Ki as the dissociation constant of the complex between target and ligand, obtained from inhibition or displacement.

The target of one experiment is mouse TAAR1 (Mus musculus (Mouse), UniProt Q923Y8). The experiment is described as follows: Radioligand binding assay on mouse TAAR1. Particulars: read-out: Ki (μM) mouse. The essentials: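 Membranes were from HEK293 cells stably expressing mouse TAAR1. Compounds from 10 pM to 10 μM, in duplicate, competed with [3H]-(S)-4-[(ethyl-phenyl-amino)-methyl]-4,5-dihydro-oxazol-2-ylamine for 1 h at 4 °C. Nonspecific binding was defined with 10 μM unlabelled ligand, and bound radioactivity was read by filtration and scintillation.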
Chain of mouse TAAR1 (Q923Y8 whole entry): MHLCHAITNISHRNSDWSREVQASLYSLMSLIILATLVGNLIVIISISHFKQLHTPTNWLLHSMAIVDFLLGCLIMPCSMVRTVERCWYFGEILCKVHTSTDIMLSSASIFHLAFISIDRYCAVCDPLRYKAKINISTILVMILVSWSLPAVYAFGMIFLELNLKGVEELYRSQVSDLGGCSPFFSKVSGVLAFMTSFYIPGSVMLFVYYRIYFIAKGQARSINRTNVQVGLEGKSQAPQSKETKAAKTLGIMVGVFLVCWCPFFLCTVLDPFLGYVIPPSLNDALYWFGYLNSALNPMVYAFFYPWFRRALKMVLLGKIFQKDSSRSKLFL

A further experiment concerns the target rat TAAR1 (Rattus norvegicus (Rat), UniProt Q923Y9). The experiment is described as follows: Radioligand binding assay on rat TAAR1. Particulars: read-out: Ki (μM) rat. The essentials:
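Membranes from HEK293 cells stably expressing rat TAAR1, with Kd checked per batch by saturation. Competition with ³H-(S)-4-[(ethyl-phenyl-amino)-methyl]-4,5-dihydro-oxazol-2-ylamine, compounds 10 pM–10 μM in duplicate, 1 hr at 4 °C. Filtration then scintillation counting; nonspecific binding defined with 10 μM unlabeled ligand.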

The mark [1] stands for this setting: mouse TAAR1, HEK-293 membranes, first value of cell mouse/rat.
The mark [2] stands for this setting: rat TAAR1, HEK-293 membranes, second value of cell mouse/rat.

Structures are written as SMILES. Structures can show the parent of a compound that is named as a salt. Where two headings read alike, the source gives them in different places.

Chain of rat TAAR1 (Q923Y9 whole entry): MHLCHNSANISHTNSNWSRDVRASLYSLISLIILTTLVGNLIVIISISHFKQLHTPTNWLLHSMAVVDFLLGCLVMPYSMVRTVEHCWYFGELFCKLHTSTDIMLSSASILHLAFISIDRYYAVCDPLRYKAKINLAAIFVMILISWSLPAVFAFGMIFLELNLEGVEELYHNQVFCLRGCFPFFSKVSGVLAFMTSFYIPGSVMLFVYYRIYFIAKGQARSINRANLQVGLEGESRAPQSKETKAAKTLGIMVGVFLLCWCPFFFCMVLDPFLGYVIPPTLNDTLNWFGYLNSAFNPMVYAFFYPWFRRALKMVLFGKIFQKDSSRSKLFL

`O=C(Nc1ccc(C2CNCCO2)cc1)c1ccc(C(F)(F)F)nc1` (racemic) [Example 272, (RS)—N-(4-(Morpholin-2-yl)phenyl)-6-(trifluoromethyl)nicotinamide hydrochloride]: the Ki at mouse TAAR1 (setting [1]) is 0.0214 µM; at rat TAAR1 it was 0.0169 µM.
Regarding `Cc1cc(C(=O)Nc2ccc(C3CNCCO3)cc2)cc(Cl)n1` (racemic) [Example 273, (RS)-2-Chloro-6-methyl-N-(4-(morpholin-2-yl)phenyl)isonicotinamide hydrochloride], the inhibition constant (Ki) turned out to be 0.0343 µM at mouse TAAR1 and 0.008 µM at rat TAAR1 (setting [2]).
As for `Cc1cccc(C(=O)Nc2ccc(C3CNCCO3)cc2)c1` (racemic) [Example 277, (RS)-3-Methyl-N-(4-(morpholin-2-yl)phenyl)benzamide hydrochloride], the figures for the Ki on mouse TAAR1 and on rat TAAR1 (setting [2]) were 0.0472 µM and 0.0036 µM, respectively.
On to `O=C(Nc1ccc(C2CNCCO2)cc1)c1ccc(N2CCCC2)nc1` (racemic) [Example 279, (RS)—N-(4-(Morpholin-2-yl)phenyl)-6-(pyrrolidin-1-yl)nicotinamide hydrochloride], for which the Ki on mouse TAAR1 (setting [1]) is 0.146 µM; on rat TAAR1 (setting [2]), 0.0044 µM.
On the same counts, the results for `O=C(Nc1ccc(C2CNCCO2)cc1)c1ccnc(C(F)(F)F)c1` (racemic) [Example 280, (RS)—N-(4-(Morpholin-2-yl)phenyl)-2-(trifluoromethyl)isonicotinamide hydrochloride] are 0.0172 µM and 0.0069 µM.
Turning to `O=C(Nc1ccc(C2CNCCO2)cc1)c1csc(-c2cnccn2)n1` (racemic) [Example 288, (RS)—N-(4-(Morpholin-2-yl)phenyl)-2-(pyrazin-2-yl)thiazole-4-carboxamide hydrochloride], the inhibition constant (Ki) at mouse TAAR1 came to 0.0278 µM; on rat TAAR1 (setting [2]) it was 0.0075 µM.
`O=C(Nc1ccc(C2CNCCO2)cc1)c1csc(-c2ncccn2)n1` (racemic) [Example 290, (RS)—N-(4-(Morpholin-2-yl)phenyl)-2-(pyrimidin-2-yl)thiazole-4-carboxamide hydrochloride]: the values for the inhibition constant (Ki) at mouse TAAR1 (setting [1]) and on rat TAAR1 (setting [2]) were 0.0608 µM and 0.324 µM, respectively.
Consider `O=C(Nc1ccc(C2CNCCO2)cc1)Nc1ccc(C(F)(F)F)cc1` (racemic) [Example 291, (RS)-1-(4-(Morpholin-2-yl)phenyl)-3-(4-(trifluoromethyl)phenyl)urea hydrochloride], for which the Ki at mouse TAAR1 (setting [1]) was determined as 0.0012 µM; at rat TAAR1 it was 0.0017 µM.
With `O=C(Nc1ccc(Cl)cc1)Nc1ccc(C2CNCCO2)cc1` (racemic) [Example 292, (RS)-1-(4-Chlorophenyl)-3-(4-(morpholin-2-yl)phenyl)urea hydrochloride], the inhibition constant Ki on mouse TAAR1 (setting [1]) and at rat TAAR1 (setting [2]) was 0.001 µM each time.
On to `Cc1ccc(NC(=O)Nc2ccc(C3CNCCO3)cc2)cc1` (racemic) [Example 293, (RS)-1-(4-(Morpholin-2-yl)phenyl)-3-p-tolylurea hydrochloride], for which the values for the inhibition constant (Ki) on mouse TAAR1 (setting [1]) and on rat TAAR1 (setting [2]) were 0.0074 µM and 0.0014 µM, respectively.
Taken in the same sequence, the figures for `Cc1cc(C(=O)Nc2ccc(C3CNCCO3)cc2)ccn1` (racemic) [Example 294, (RS)-2-Methyl-N-(4-(morpholin-2-yl)phenyl)isonicotinamide dihydrochloride] were 1.18 µM and 0.0226 µM.
In the case of `Cc1cc(C(=O)Nc2ccc(C3CNCCO3)cc2)cc(C)n1` (racemic) [Example 295, (RS)-2,6-Dimethyl-N-(4-(morpholin-2-yl)phenyl)isonicotinamide dihydrochloride], the results for the inhibition constant (Ki) on mouse TAAR1 (setting [1]) and at rat TAAR1 (setting [2]) were 0.235 µM and 1.2 µM, respectively.
`Cn1cc(-c2nc(C(=O)Nc3ccc(C4CNCCO4)cc3)cs2)cn1` (racemic) [Example 296, (RS)-2-(1-Methyl-1H-pyrazol-4-yl)-N-(4-(morpholin-2-yl)phenyl)thiazole-4-carboxamide hydrochloride]: the Ki at mouse TAAR1 (setting [1]) turned out to be 0.0645 µM; on rat TAAR1 (setting [2]) it was 0.0847 µM.
In the case of `Cc1nc(-c2cnccn2)sc1C(=O)Nc1ccc(C2CNCCO2)cc1` (racemic) [Example 298, (RS)-4-Methyl-N-(4-(morpholin-2-yl)phenyl)-2-(pyrazin-2-yl)thiazole-5-carboxamide hydrochloride], the Ki was 0.0506 µM on mouse TAAR1 and 0.0143 µM on rat TAAR1 (setting [2]).
As for `O=C(Nc1ccc(C2CNCCO2)cc1)c1ccn(-c2ccccc2)n1` (racemic) [Example 299, (RS)—N-(4-(Morpholin-2-yl)phenyl)-1-phenyl-1H-pyrazole-3-carboxamide hydrochloride], the values for the Ki on mouse TAAR1 (setting [1]) and on rat TAAR1 (setting [2]) were 0.0022 µM and 0.0014 µM, respectively.
On the same counts, the results for `CCOc1cc(C(=O)Nc2ccc(C3CNCCO3)cc2)ccn1` (racemic) [Example 300, (RS)-2-Ethoxy-N-(4-(morpholin-2-yl)phenyl)isonicotinamide hydrochloride] are 0.0726 µM and 0.002 µM.
As for `O=C(Nc1ccc(C2CNCCO2)cc1)Nc1ccc(Cl)nc1` (racemic) [Example 302, (RS)-1-(6-Chloropyridin-3-yl)-3-(4-(morpholin-2-yl)phenyl)urea hydrochloride], the inhibition constant (Ki) at mouse TAAR1 (setting [1]) worked out at 0.0574 µM; at rat TAAR1 (setting [2]), 0.0056 µM.
For the molecule `O=C(Nc1ccc(C2CNCCO2)cc1)Nc1cccc(Cl)c1` (racemic) [Example 303, (RS)-1-(3-Chlorophenyl)-3-(4-(morpholin-2-yl)phenyl)urea hydrochloride], the results for the inhibitory constant (Ki) at mouse TAAR1 (setting [1]) and at rat TAAR1 (setting [2]) were 0.002 µM and 0.0005 µM, respectively.
`Cc1cccc(NC(=O)Nc2ccc(C3CNCCO3)cc2)c1` (racemic) [Example 304, (RS)-1-(4-(Morpholin-2-yl)phenyl)-3-m-tolylurea hydrochloride]: the results for the Ki on mouse TAAR1 (setting [1]) and on rat TAAR1 (setting [2]) were 0.0071 µM and 0.0012 µM, respectively.
As to `O=C(Nc1ccc(C2CNCCO2)cc1)Nc1ccccc1Cl` (racemic) [Example 305, (RS)-1-(2-Chlorophenyl)-3-(4-(morpholin-2-yl)phenyl)urea hydrochloride], the inhibition constant (Ki) on mouse TAAR1 (setting [1]) was 0.0266 µM; on rat TAAR1, 0.0038 µM.
On to `Cc1ccc(CNC(=O)Nc2ccc(C3CNCCO3)cc2)cc1` (racemic) [Example 306, (RS)-1-(4-Methylbenzyl)-3-(4-(morpholin-2-yl)phenyl)urea hydrochloride], for which the Ki was found to be 0.0266 µM at mouse TAAR1 (setting [1]) and 0.0038 µM on rat TAAR1 (setting [2]).
Turning to `O=C(Nc1ccc(C2CNCCO2)cc1)NC1CCCCC1` (racemic) [Example 307, (RS)-1-cyclohexyl-3-(4-(morpholin-2-yl)phenyl)urea hydrochloride], the inhibition constant Ki was 0.0778 µM at mouse TAAR1 (setting [1]) and 0.0305 µM at rat TAAR1 (setting [2]).
In the case of `CSc1ccc(C(=O)Nc2ccc(C3CNCCO3)cc2)cc1` (stereo in doubt) [Example 267, (S)-4-(Methylthio)-N-(4-(morpholin-2-yl)phenyl)benzamide hydrochloride], the inhibitory constant (Ki) on mouse TAAR1 (setting [1]) stood at 0.0476 µM; at rat TAAR1 it was 0.0011 µM.
For the molecule `CN1CCN(c2ccc(NC(=O)Nc3ccc(Cl)c(Cl)c3)cc2)CC1` [Example 2, 1-(3,4-Dichloro-phenyl)-3-[4-(4-methyl-piperazin-1-yl)-phenyl]-urea], the values for the Ki at mouse TAAR1 and on rat TAAR1 (setting [2]) were 0.0006 µM and 0.001 µM, respectively.
On to `CN1CCN(c2ccc(NC(=O)Nc3ccc(-c4cnco4)cc3)cc2)CC1` [Example 4, 1-[4-(4-Methyl-piperazin-1-yl)-phenyl]-3-(4-oxazol-5-yl-phenyl)-urea], for which the Ki at mouse TAAR1 (setting [1]) came out at 0.0189 µM; at rat TAAR1 (setting [2]), 0.0837 µM.
As for `O=C(Nc1ccc(C2CCNCC2)cc1)c1ccc(Cl)cc1` [Example 57, 4-Chloro-N-(4-piperidin-4-yl-phenyl)-benzamide hydrochloride], the values for the inhibition constant (Ki) at mouse TAAR1 (setting [1]) and at rat TAAR1 (setting [2]) were 0.0055 µM and 0.0005 µM, respectively.
On the same counts, the results for `O=C(Nc1ccc(N2CCNCC2)cc1)c1ccc(Cl)cc1` [Example 59, 4-Chloro-N-(4-piperazin-1-yl-phenyl)-benzamide hydrochloride] are 0.0256 µM and 0.0014 µM.
Taken in the same sequence, the figures for `O=C(Nc1ccc([C@@H]2CCCNC2)cc1)c1ccc(Cl)cc1` [Example 112, 4-Chloro-N—((S)-4-piperidin-3-yl-phenyl)-benzamide] were 0.211 µM and 0.0018 µM.
For `O=C(Nc1ccc([C@H]2CCCNC2)cc1)c1ccc(Cl)cc1` [Example 113, 4-Chloro-N—((R)-4-piperidin-3-yl-phenyl)-benzamide], the Ki is 0.0095 µM on mouse TAAR1 (setting [1]) and 0.004 µM at rat TAAR1 (setting [2]).
As for `O=C(Nc1ccc([C@@H]2CNCCO2)cc1)c1ccc(Cl)cc1` [Example 143, 4-Chloro-N—((R)-4-morpholin-2-yl-phenyl)-benzamide hydrochloride], the Ki at mouse TAAR1 was 0.0054 µM; on rat TAAR1, 0.0006 µM.
With `O=C(Nc1ccc([C@H]2CNCCO2)cc1)c1ccc(Cl)cc1` [Example 144, 4-Chloro-N—((S)-4-morpholin-2-yl-phenyl)-benzamide hydrochloride], the inhibition constant (Ki) at mouse TAAR1 came out at 0.0188 µM; on rat TAAR1, 0.0011 µM.
Take `O=C(Nc1ccc([C@H]2CCCNC2)cc1)c1ccc(Cl)c(Cl)c1` [Example 150, 3,4-Dichloro-N—((R)-4-piperidin-3-yl-phenyl)-benzamide hydrochloride]: the results for the Ki on mouse TAAR1 and on rat TAAR1 (setting [2]) were 0.002 µM and 0.0004 µM, respectively.
Taken in the same sequence, the figures for `O=C(Nc1ccc([C@H]2CCCNC2)cc1)c1cccc(Cl)c1` [Example 151, (R)-3-Chloro-N-(4-(piperidin-3-yl)phenyl)benzamide hydrochloride] were 0.011 µM and 0.0008 µM.
Take `O=C(Nc1ccc([C@@H]2CCCNC2)cc1)c1ccc(Cl)c(Cl)c1` [Example 152, 3,4-Dichloro-N—((S)-4-piperidin-3-yl-phenyl)-benzamide hydrochloride]: the values for the inhibitory constant (Ki) at mouse TAAR1 and at rat TAAR1 (setting [2]) were 0.0086 µM and 0.0003 µM, respectively.

Source of the values: patent US9452980B2, “Substituted benzamides” (Hoffmann-La Roche Inc., priority 2009, dated 2016).
